In US20260258471A1, “SYSTEMS AND METHODS FOR MICROCOLONY GROWTH AND MICROBIAL CELL CHARACTERIZATION” (priority 2018, published 2026):
≈ marks a conversion by molar mass, not a printed value.

How the values were obtained:
Format in all cases: cell-based
Staphylococcus aureus [1] = assay: LD-AST on annular-disk microwell strips
Experimental: In this case, the cell proliferation at the borderline LD-AST unit, such as the one labeled 12 μg, would be preferably determined by image processing. For example, time-lapse microscopic images can be acquired are aligned and difference images (obtained via subtraction of aligned images) may be processed to detect evidence of growth.
In order to further illustrate the insensitivity of the LD-AST to variations of the antimicrobial agent concentration at the ROIs during the first hour of the assay, the assay was performed in two different protocols; a first direct protocol involving immediate inoculation of the microbial cell suspension after contacting the annular disks with the solid phase growth medium, and a second delayed protocol in which the microbial cell suspension was inoculated 1 hour after contacting the annular disks with the solid phase growth medium.
Blank AST paper disks (Hardy Diagnostics, Z7121) that were 6.35 mm in diameter and 0.75 mm thick, were modified to include a 3 mm hole in the center.
Each paper disk has the capacity to absorb approximately 20 μL of liquid before being saturated. For each antibiotic, a two-fold serial dilution in water was made which included concentrations near its suspected MIC value. The disks were separated into individual wells of a 96-well microplate, and then 20 μL of each antibiotic dilution was pipetted over paper disks ensuring that the entire disk was evenly wetted. After incubation for about 20 minutes at room temperature, the disks in the microplate were dried in vacuum desiccator. Alternatively, individual disk separated in the microplate well could be soaked in an excess volume (30 to 50 μL) of the antibiotic dilution. After incubation, the excess fluid is removed by pipette and dried in a vacuum desiccator. The microplate was then covered with an adhesive cover and stored at 4° C.
Tryptic soy agar blood base (Hardy Diagnostics C5221) was prepared with 1% defibrinated sheep's blood according to the manufacturer. While the agar was still warm (45 to 50° C.), it was pipetted into the wells of an 12×8-well strip plate. For “Thin-gel” case, approximately 50 μL of agar was dispensed into an individual well to give a gel thickness of ~1 mm. For the “mid-thick gel” case, approximately 150 μL of agar was dispensed to gel a gel thickness of ~3 mm. Finally, for the “thick gel” case, approximately 350 μL of agar was dispensed to gel a gel thickness of ~7 mm. The agar gels were then cooled to room temperature to solidify, and then either used immediately or stored at 4° C. with an adhesive cover over the wells to prevent gel drying. […]

Staphylococcus aureus [2] = assay: Vitek 2 reference AST
Staphylococcus aureus [3] = assay: broth microdilution AST according to Example 11
Experimental: (§1) Intermediate twofold dilutions of antimicrobial agents in broth (Tryptic soy, and in some cases Brain Heart Infusion). 100 μL of the antimicrobial agent/broth solutions were dispensed into each well of 96-well plates in triplicates. Then, to each well 10 μL of the 5×10^6 CFU/mL cell suspension, which was prepared according to the method of example 5, was added. The plate was sealed and placed in the incubator at 35-37° C. for 16-24 hours for MIC value to be determined.

S. aureus = assay: antimicrobial dilution pipetted directly onto thin-type gel microwells (no annular disk); conditions: Staphylococcus aureus; 20 μL of two-fold dilutions pipetted onto thin-type microwells; 37° C. until control colonies visible
Experimental: In order to verify the observed difference between the MIC for the low-volume gel and the typical MIC values reported by EUCAST for S. aureus and Vancomycin was not caused by the geometry of the annular disk and its corresponding diffusion dynamics, the following experiment was performed. A two-fold serial dilution of the target antimicrobial agent was prepared in water. Then 20 μL of each dilution was pipetted onto the surface of “thin-type” microwells that were prepared according to the method of Example 10. After about 10 minutes, the antimicrobial agent solution had diffused into top of the gel. 1 μL of a microbial cell suspension was then added and together they were incubated at 37° C. until the microbial colonies at the control well (zero antimicrobial agent concentration) were visible. The MIC found in this manner was 3 μg/mL.

[4] = system: Methicillin-resistant Staphylococcus aureus (MRSA 111 with not strong resistance); assay: thin strip type LD-AST on clean suspension and positive blood culture
Experimental: Methicillin-resistant Staphylococcus aureus (MRSA 111 with not strong resistance) was spiked into 10 mL of whole blood samples at the nominal concentration of 5-10 CFU/ml. Then, an FA Plus aerobic blood culture bottles were inoculated with 10 mL of spiked whole blood and incubated at 37° C. until the culture turns positive. At this time, 30 μL of glycerol stock of the bacterial cell was inoculated in 3 mL of TSB and incubated at 37° C. for 3 hr with shaking at 150 rpm. Based on OD measurements, serial dilutions of the respective bacteria were prepared in TSB at a nominal concentration of 10^5 CFU/mL. An aliquot of the positive blood sample was diluted in TSB by 1000-fold. The two samples were simultaneously tested for susceptibility against Oxacillin with “thin strip” type LD-AST. The results, which are presented in FIG. 30, indicate similar MIC value of 1 μg/mL.

Escherichia coli [5] = assay: LD-AST (local diffusion antimicrobial susceptibility testing) on annular-disk microwell strips
Experimental: In one case, an LD-AST test strip was fabricated following the method of Examples 9A and 10, coating different concentrations of Norfloxacin on the annular disks in 0-16 μg range. Three types of strips were prepared: low volume agar type with 80 μL of gel per microwell, medium volume agar type with 150 μL of gel per microwell, and high-volume agar type with 350 μL of gel per microwell. The corresponding gel thickness was respectively 2 mm, 4 mm, and 9 mm. The annular disks were then placed on the gels. The images of the microwell strip, for the case of low volume agar type, is presented in FIGS. 23A and 23B, where 220, 221, 222, and 223 respectively, refer to the drug impregnated annular disc, the drug exposure region, the guiding ring, and the gel. 1 μL of Escherichia coli cell suspension, which had been prepared according to the method of Example 12, was dispensed into the ROI of each LD-AST unit. The strips were incubated at 37° C. and their ROI were imaged by an epi-illuminated microscope having a 5× objective once every hour. These images are presented in FIGS. 24A-24C (low volume gel), 25A-C (medium volume gel), and 26A-C (high volume gel) for incubation times of t=3hours, t=4hours and t=overnight, respectively.
The labels in FIGS. 24A-24C show the mass of the of the antimicrobial agent that was coated on the annular disk during preparation. […] Despite this time variation, an effective antimicrobial agent concentration may be associated with each microwell. This effective antimicrobial agent concentration may be estimated, for example, by modeling the diffusion of the antimicrobial agent, as in FIG. 21A, or, for example, by comparing the results of the LD-AST assay to a reference assay such as broth microdilution assay.
In the case of low volume gels (FIG. 24A-24C), since the antimicrobial agent is expected rapidly and efficiently diffuse throughout the volume of the solid phase growth medium, and since it is expected that the antimicrobial agent diffuses nearly completely from the annular disk, the effective antimicrobial agent concentration may be estimated by dividing the mass of the antimicrobial agent that was provided on the annular disk by the volume of the gel. […] Accordingly, the effective antimicrobial agent concentration for the case low-volume gels of FIGS. 24A-24C was estimated to be 0.25 times of the drug mass that was impregnated on the disk. For instance, the drug concentration at the drug exposure region of the annular disk loaded by 16 μg of Norfloxacin is 4 μg/mL.
Comparing FIGS. 24B and 24C, one can observe (or computationally determine) that for the LD-AST unit labeled by 0.5 μg (having an estimated effective concentration of 0.1 μg/ml), there appears to be a lack of visible growth between 3 and 4 hours of incubation. This halting in growth was verified by imaging the ROIs after overnight culture, as illustrated in FIG. 24C. As a result, the MIC value for this test was estimated as 0.1 μg/mL. […]
FIG. 25A-25C and 26A-26C, respectively, correspond to intermediate volume (gel volume of 150 μL in microwell) and high volume (gel volume of 350 μL in microwell) cases. In these cases, due to the larger temporal variation in concentration during incubation, an effective antimicrobial agent concentration may be determined by correlating the observed results with a reference microdilution assay. […]

Escherichia coli [6] = assay: conventional microdilution methodology (reference)
Experimental: as §1

Escherichia coli [7] = assay: Vitek 2 (Biomerieux) reference AST
[8] = system: Candida albicans (ATCC 90028); assay: LD-AST against fungal cells; conditions: thin strip LD-AST; images at 3 and 4 hours, verified overnight
Experimental: A series of LD-AST units having different levels of Amphotoricin B were prepared and tested against Candida albicans (ATCC 90028). […] Therefore, the MIC was determined to be 2 μg/mL. The conclusion of growth at the LD-AST unit corresponding to 1 μg/mL, though not easily noticed in FIG. 29 by visual inspection of t=3 and 4 incubation images, was verified by referring to the overnight incubation row in the figure.
To align imaging data acquired at different time points (2, 3, 4 and 5 hours after seeding), 2D-2D registration (only translation and rotation are permitted) with rigid transformation constrains was performed. The corresponding intensity feature points between the previous time point (tn-1 or tn-2) image, so-called reference, and each further image, so-called floating image, were automatically identified using the key-point detector SURF and used for aligning imaging date with respect to the reference data. Intensity features present at the reference image were classified as background while intensity features appearing on further images (cells/bugs) were classified as foreground. The position of given individual microcolonies have been marked in consecutive images. Setting the background allows enhanced detection of microcolonies and their growth.

With `CN[C@H](CC(C)C)C(=O)N[C@H]1C(=O)N[C@@H](CC(N)=O)C(=O)N[C@H]2C(=O)N[C@H]3C(=O)N[C@H](C(=O)N[C@H](C(=O)O)c4cc(O)cc(O)c4-c4cc3ccc4O)[C@H](O)c3ccc(c(Cl)c3)Oc3cc2cc(c3O[C@@H]2O[C@H](CO)[C@@H](O)[C@H](O)[C@H]2O[C@H]2C[C@](C)(N)[C@H](O)[C@H](C)O2)Oc2ccc(cc2Cl)[C@H]1O` [Vancomycin] the “classification of MIC per CLSI interpretation standards” value (Staphylococcus aureus [1]; LD-AST MIC, thin type) was “I”, the “MIC, direct protocol versus delayed (1 hour) inoculation protocol” value (Staphylococcus aureus [1]; mid-thick strip, 4 hours after inoculation (FIG. 28)) was “equal” and the “growth at borderline LD-AST unit (difference image of time-lapse images)” value (Staphylococcus aureus [1]; mid-thick type, unit labeled 12 μg, verified by overnight incubation) was “continued to grow”. The MIC value (Staphylococcus aureus [1]; thin type LD-AST unit (FIG. 27A), 3 and 4 hours incubation) was 3 µg/mL (≈ 2.07 µM), the “susceptibility category from Vitek 2” value (Staphylococcus aureus [2]) was “S” and the MIC (Staphylococcus aureus [2]; Staphylococcus aureus, read-out: MIC value from Vitek 2) was 1 µg/mL (≈ 0.69 µM). For the same compound, the MIC (Staphylococcus aureus [3]; Staphylococcus aureus, broth microdilution, Example 11) was 1.5 µg/mL (≈ 1.04 µM), the “classification of MIC according to CLSI” value (Staphylococcus aureus [3]; broth microdilution MIC) was “S” and the MIC (S. aureus) was 3 µg/mL (≈ 2.07 µM).
Compound `Cc1onc(-c2ccccc2)c1C(=O)N[C@@H]1C(=O)N2[C@@H]1SC(C)(C)[C@@H]2C(=O)O` [Oxacillin] has an MIC ([4]; Staphylococcus aureus, MRSA, clean cell suspension in TSB, nominal 10^5 CFU/mL) of 1 µg/mL (≈ 2.49 µM) and an MIC value ([4]; positive blood culture diluted in TSB by 1000-fold) of 1 µg/mL (≈ 2.49 µM).
For `CCn1cc(C(=O)O)c(=O)c2cc(F)c(N3CCNCC3)cc21` [Norfloxacin], the MIC (Escherichia coli [5]; Escherichia coli, low volume gel strip, no growth between 3 and 4 hours of incubation, verified overnight, read-out: MIC value (estimated effective concentration)) was 0.1 µg/mL (≈ 0.313 µM), the “classification of MIC per CLSI/EUCAST interpretation standards” value (Escherichia coli [5]; LD-AST MIC, low volume gel) was “S” and the “antimicrobial mass label of the microwell at which microbial growth halts” value (Escherichia coli [5]; high volume (gel volume of 350 μL in microwell)) was 1 µg. For the same compound, the “antimicrobial mass label of the microwell at which microbial growth halts” value (Escherichia coli [5]; intermediate volume (gel volume of 150 μL in microwell)) was 1 µg, the “antimicrobial mass coated on annular disk of the LD-AST unit showing lack of visible growth” value (Escherichia coli [5]; low volume gel, between 3 and 4 hours of incubation) was 0.5 µg and the MIC value (Escherichia coli [6]) was 0.1 µg/mL (≈ 0.313 µM). The “susceptibility category reported by Vitek 2” value (Escherichia coli [7]) was “S” and the MIC (Escherichia coli [7]; Escherichia coli, read-out: MIC value reported by Vitek 2) was at most 0.5 µg/mL.
Amphotoricin B gave an MIC [8] of 2 µg/mL.
